Like-named read-outs stand apart in the source and are kept apart here. Marks after values point to notes of the source that are not given here. Where a SMILES comes first, the peptide text is derived from it.
Key:
[1] = tested on: S. aureus (ATCC 49521); assay: Lysostaphin MIC assay, outgrowth of lysostaphin resistance with or without sub-MIC bacitracin or nisin; assay type: cell-based; design: key to growth in lysostaphin MIC assay: G = Normal growth; Blank = no growth; R = resistance outgrowth as determined by addition of 20 μg/ml lysostaphin for 4 hrs following initial overnight incubation; conditions: for growth in lysostaphin MIC assay: replicate rows
Description: When lysostaphin is tested in a standard “Minimum Inhibitory Concentration” (MIC) assay, outgrowth of S. aureus is sometime observed above the MIC for almost all strains of S. aureus examined. On further testing, these outgrowth wells are found to contain lysostaphin-resistant S. aureus with MICs many dilutions above the MIC of the parental strain. […] This Example illustrates that the addition of the antibacterial agent bacitracin, eliminates lysostaphin-resistant outgrowths in vitro, and may likewise reduce or eliminate resistant outgrowths in vivo. […] Of course, nasal formulations comprising antibacterial agents above the MIC for that particular agent are also within the scope of this invention.
In this experiment a NCCLS standard MIC is conducted with the modification of adding 0.1% BSA to the assay. Rows 1-4 are lysostaphin MICs conducted in the absence of bacitracin while rows 5-8 are lysostaphin MICs conducted in the presence of bacitracin (5 μg/ml).
(§1) Lysostaphin MIC assays were conducted in the presence or absence of subinhibitory concentrations (four-fold dilution below MIC) of either bacitracin or nisin to determine if either substance prevented the outgrowth of lysostaphin resistance in these assays. This is as previously described in Example 14, above.

[2] = tested on: S. aureus strain MBT 5040; assay: MIC by microtiter dilution assay; assay type: cell-based
Description: At the same time, a Columbia agar plate containing 2% NaCl (CSA) was inoculated with S. aureus strain MBT 5040 from a frozen stock. […] The MIC of a drug for a particular bacterial strain is the minimum concentration of the drug that inhibits normal growth of that particular bacterial strain.
Any detected S. aureus after lysostaphin treatment were tested for lysostaphin resistance by microtiter dilution assay. […] Plates were prepared by making lysostaphin dilutions in cation-adjusted Mueller Hinton broth+2%NaCl and 0.1%BSA (CAMHB+). The CAMHB+2% NaCl was made first, autoclaved, and then sterile 30% BSA was added to equal 0.1% BSA concentration. BSA prevents nonspecific lysostaphin interaction with plastic. The final volume of CAMHB+ in each well was 50 μl. Dilutions were 1:2, prepared by mixing 50 μl of the previous dilution into 50 μl of fresh media. The final row on the plate was left with no lysostaphin added as a control for growth. […] Overnight cultures were diluted ˜1:1000, as determined empirically, to yield a final concentration of 5×10^5/ml by measuring the optical density at 650 nm (OD650). […] The minimal inhibitory concentration (MIC) of lysostaphin, the lowest concentration of lysostaphin that prevents normal growth, was determined by reading the OD650 on a microplate reader.
Plates were incubated at room temperature for 6 to 18 hours. The OD650 was determined.

[3] = tested on: S. aureus strain MRSA 12/12; assay: Cotton rat nasal colonization model, single dose of cream; assay type: in vivo; conditions: Table 6d; single dose of 0.5% lysostaphin cream
Description: To further explore the relationship between lysostaphin-resistance and nasal colonization, treatment of S. aureus strain MRSA 12/12 nasal colonization with a single dose of 0.5% lysostaphin cream was also examined. MRSA 12/12 colonized the cotton rat nares (Table 6d), and a single treatment of 0.5% lysostaphin cream also eradicated nasal colonization by this strain. Nasal supernatant from treated animals was plated on both TSA/NaCl+nafcillin and TSA/NaCl alone since when MRSA become lysostaphin-resistant they revert to MSSA (17).

[4] = tested on: S. aureus MBT 5040; assay: Cotton rat model, cream instilled before instillation of bacteria (blocking of colonization); assay type: in vivo; conditions: administered in a viscous formulation such as a cream
Description: To determine how long lysostaphin, when administered in a cream formulation, remains active in the nares, a single dose of 2% lysostaphin cream was instilled in cotton rat noses 48 hours, 24 hours, and 8 hours prior to instillation of 10^9 CFU of S. aureus MBT 5040. Control animals received control cream, without lysostaphin, 8 hours prior to receiving bacteria. Six days after introduction of the bacteria, each of the 5 animals per experimental group were sacrificed and the noses checked for S. aureus colonization.

[5] = tested on: S. aureus; assay: Proteinase K neutralization of lysostaphin activity in vitro; assay type: cell-based; conditions: 10^5 S. aureus in PBS; lysostaphin 10 mcg and/or 10 mg/ml Proteinase K; 20 minutes at room temperature
Description: Lysostaphin (10 mcg) was added to some samples of 10^5 S. aureus in PBS in the presence or absence of 10 mg/ml Proteinase K. The samples were incubated for 20 minutes at room temperatures and then 100 microliter aliquots were plated on blood agar.

[6] = tested on: SA5 USU; assay: Lysostaphin MIC assay, outgrowth of lysostaphin resistance with or without sub-MIC bacitracin or nisin; assay type: cell-based, S. aureus; conditions: nisin or bacitracin at four-fold dilution below MIC
Description: as §1

[7] = tested on: SA5 Sam; assay: as above; assay type: cell-based, S. aureus; conditions: nisin or bacitracin at four-fold dilution below MIC
Description: as §1

[8] = tested on: SA8 Sam; assay: as above; assay type: cell-based, S. aureus; conditions: nisin or bacitracin at four-fold dilution below MIC
Description: as §1

[9] = tested on: S. aureus strain SA 3865 (mupirocin resistant); assay: Cotton rat nasal colonization model, single dose of cream; assay type: in vivo; conditions: Table 6d; single dose of 0.5% lysostaphin cream
[10] = tested on: Type 8 S. aureus (MSSA); assay: as above; assay type: in vivo; conditions: Table 6d; single dose of 0.5% lysostaphin cream
Description: (§2) On the day of instillation, S. aureus MBT 5040 was harvested from the CSA plate by scraping colonies into sterile. PBS (1 ml/animal to be instilled) until the percent transmittance of the sample was approximately 10% at […] in a 10 mm path length. The bacteria were pelleted by centrifugation and then resuspended in 10 μl/animal of sterile PBS. Cotton rats were sedated with 200 μl of Ketamine (25 mg/kg), Rompun (2.5 mg/kg), and Acepromazine (2.5 mg/kg) delivered intramuscularly. Ten microliters, approximately 10^9 S. aureus CFUs per animal, of MBT 5040 in PBS was instilled in the nares using a micropipette without touching the nares. Specifically, a drop of bacterial inoculum was placed on the nostril with a micropipettor, without touching the nose. The animal's regular process of respiration then inhaled the drop into the nares. After introduction of the MBT 5040 bacteria, the cotton rats were returned to normal water, without nafcillin. Unless otherwise indicated, this method was consistently used to instill S. aureus in the nares for all examples discussed below.
(§3) Ten cotton rats were nasally instilled with MBT 5040 S. aureus. On day 4 and day 5 post-instillation, the 5 animals were treated with a 0.5% lysostaphin cream and 5 animals were treated with a cream without lysostaphin added. Cream formulations were delivered into the nares of anaesthetized cotton rats by syringe through an Angiocath™ 22 GA flexible catheter (Becton Dickinson). The catheter was inserted approximately 3 mm into each of the nares and then drawn back as the cream was delivered. The noses of the cotton rats were massaged well following cream delivery to ensure good dispersal of cream. The dose of cream delivered to the nares was approximately 30-50 μl. Due to the cream's highly viscous nature, it was difficult to precisely gauge to volume of creams delivered to the nares. Unless otherwise indicated, this method of cream delivery into the nares was used throughout the examples below.
(§4) To determine the efficacy of a single dose of 0.5% lysostaphin cream in eradicating S. aureus nasal colonization, cotton rats were instilled with either MBT 5040 (MRSA), Type 5 S. aureus (sensitive to methicillin; MSSA), or Type 8 S. aureus (MSSA). Half of the animals in each group were treated once on day 5 post-instillation with negative control cream and other half of the animals were treated on the same day with 0.5% lysostaphin cream.

[11] = tested on: Type 5 S. aureus (MSSA); assay: as above; assay type: in vivo; conditions: Table 6d; single dose of 0.5% lysostaphin cream
Description: as §2, §3, §4

[12] = tested on: MBT 5040 LysoR; assay: MIC of lysostaphin for lysostaphin-resistant variant; assay type: cell-based, S. aureus; conditions: variant isolated in vitro
Description: Any detected S. aureus after lysostaphin treatment were tested for lysostaphin resistance by microtiter dilution assay. Lysostaphin was resuspended in sterile PBS, aliquotted and stored at −80° C. […] Once thawed, an aliquot of lysostaphin was stored at 4° C. and used for no more than two weeks. Plates were prepared by making lysostaphin dilutions in cation-adjusted Mueller Hinton broth+2%NaCl and 0.1%BSA (CAMHB+). The CAMHB+2% NaCl was made first, autoclaved, and then sterile 30% BSA was added to equal 0.1% BSA concentration. […] The final volume of CAMHB+ in each well was 50 μl. Dilutions were 1:2, prepared by mixing 50 μl of the previous dilution into 50 μl of fresh media. The final row on the plate was left with no lysostaphin added as a control for growth. A starting concentration of 1 μg/ml lysostaphin was used as the stock concentration. […] Overnight cultures were diluted ˜1:1000, as determined empirically, to yield a final concentration of 5×10^5/ml by measuring the optical density at 650 nm (OD650). […] The minimal inhibitory concentration (MIC) of lysostaphin, the lowest concentration of lysostaphin that prevents normal growth, was determined by reading the OD650 on a microplate reader.
Plates were incubated at room temperature for 6 to 18 hours. The OD650 was determined. […]

Molecule: CC[C@H](C)[C@H](N)C1=N[C@H](C(=O)N[C@@H](CC(C)C)C(=O)N[C@H](CCC(=O)O)C(=O)N[C@H](C(=O)N[C@H]2CCCCNC(=O)[C@H](CC(N)=O)NC(=O)[C@@H](CC(=O)O)NC(=O)[C@H](Cc3cnc[nH]3)NC(=O)[C@@H](Cc3ccccc3)NC(=O)[C@H]([C@@H](C)CC)NC(=O)[C@@H](CCCN)NC2=O)[C@@H](C)CC)CS1 [Bacitracin, bacitracin, reference compound] (HELM PEPTIDE1{[CC[C@H](C)[C@H](N)C1=N[C@H](C(=O)[*:2])CS1].L.[dE].I.K.[NCCC[C@@H](N[*:1])C(=O)[*:2]].I.[dF].H.[dD].N}$PEPTIDE1,PEPTIDE1,5:R3-11:R2$$$V2.0)
- growth in lysostaphin MIC assay ([1]; lysostaphin 0 ng/ml, bacitracin 5 μg/ml): G^

Molecule: COc1cccc(OC)c1C(=O)N[C@@H]1C(=O)N2[C@@H]1SC(C)(C)[C@@H]2C(=O)O [methicillin, reference compound]
- MIC ([2]; Staphylococcus aureus, MBT5040, read-out: MIC): > 36 µg/mL

Molecule: Lysostaphin: antibacterial endopeptidase cleaving pentaglycine bridges of staphylococcal cell walls; Ambicin L (recombinant lysostaphin) used in Examples 1-10
- Animals Colonized/Animals Tested [3]: 0/5
- Mean Colonization [3]: 0
- time lysostaphin remains active in the nares after administration [4]: at least 48 hours
- growth in lysostaphin MIC assay ([1]; lysostaphin 0.25 ng/ml, no bacitracin): G
- growth in lysostaphin MIC assay ([1]; lysostaphin 0.5 ng/ml, no bacitracin): G
- growth in lysostaphin MIC assay ([1]; lysostaphin 1 ng/ml, no bacitracin): G
- growth in lysostaphin MIC assay ([1]; lysostaphin 2 ng/ml, no bacitracin): R
- growth in lysostaphin MIC assay ([1]; lysostaphin 4 ng/ml, no bacitracin): R^3 and R^
- growth in lysostaphin MIC assay ([1]; lysostaphin 8 ng/ml, no bacitracin): R
- growth in lysostaphin MIC assay ([1]; lysostaphin 16 ng/ml, no bacitracin): R
- growth in lysostaphin MIC assay ([1]; lysostaphin 32 ng/ml, no bacitracin): R
- growth in lysostaphin MIC assay ([1]; lysostaphin 125 ng/ml, no bacitracin): R
- growth in lysostaphin MIC assay ([1]; lysostaphin 250 ng/ml, no bacitracin): R
- Percentage of wells above lysostaphin MIC that have outgrowth of lysostaphin-resistance ([1]; nisin or bacitracin at four-fold dilution below MIC): 31^a %
- CFUs Recovered [5]: 0 CFUs
- MIC [2]: 0.064 µg/mL
- Percentage of wells above lysostaphin MIC that have outgrowth of lysostaphin-resistance [6]: 14%
- Percentage of wells above lysostaphin MIC that have outgrowth of lysostaphin-resistance [7]: 18%
- Percentage of wells above lysostaphin MIC that have outgrowth of lysostaphin-resistance [8]: 58%
- Animals Colonized/Animals Tested [9]: 0/5
- Mean Colonization [9]: 0
- Animals Colonized/Animals Tested [10]: 0/5
- Mean Colonization [10]: 0
- Animals Colonized/Animals Tested [11]: 0/5
- Mean Colonization [11]: 0
- MIC [12]: > 32 µg/mL
